# Laboratory results reported in ChEMBL document CHEMBL3507680, “University of Dundee, Gates Library screen for HepG2 cell viability”.
# Test: Human HepG2 cell viability assay in 384 well format
# Type: toxicity, cell-based
# Parameters: dose 125 nL, time 70.5 hour; cytotoxicity at 70.5 h: concentration not given beside the values
# Settings: HepG2 cells, read-out: Inhibition
row,SMILES,cytotoxicity at 70.5 h [%]
1,O=C(c1cc2ccccc2o1)N1CCN(Cn2cc(Cl)cn2)CC1,-5.33
2,O=c1[nH]c(NCc2cccc(-c3ccccc3)c2)nc2c1CCNC2,-21
3,CN(C)CC1CN(Cc2ccc3c(c2)OCO3)Cc2nccn2C1 (stereo not given),27.2
4,CC(=O)N(Cc1noc(C)n1)C1CCN(Cc2ccccn2)C1 (stereo not given),-8.37
5,CN1CCN(C2CCN(Cc3nc(-c4ccoc4)no3)CC2)C1=O,-6.16
6,Cc1c(C)n(CC(O)CN2CCCCCC2)c2c(Cl)cccc12 (stereo not given),20.5
7,O=C1CCC(C(=O)NCc2nncn2-c2ccccc2)CN1 (stereo not given),-12.6
8,Cc1ccsc1[C@@H]1CCN(C(=O)CCc2nc3ccccc3[nH]2)C[C@H]1O,5.42
9,CN1CCC(N2Cc3nc(N)ncc3C2=O)CC1,-11.6
10,Cc1ccc(C(=O)NCCCNS(C)(=O)=O)cc1-n1cccc1,-4.62
11,COc1ccc(S(=O)(=O)NC(=O)c2c(C)noc2C(C)C)cc1C,-5.8
12,O=C(c1cccnc1OCC(F)(F)F)N1CCCn2ncnc21,14.8
13,CCNC(=O)NCCCn1nc2ccccn2c1=O,-9.28
14,Cc1cnc(C(=O)N2CCCC(Cn3cc(CC(C)C)nn3)C2)cn1 (stereo not given),-8.09
15,CN1CC(Nc2nc3c(cnn3C(C)(C)C)c(=O)[nH]2)CCC1=O (stereo not given),-2.42
16,NCC1(c2cccc(C(F)(F)F)c2)CCCC1,15.4
17,O=C(CCCn1cncn1)N1CCC2(CCCNC2=O)C1 (stereo not given),0.299
18,O=C(NCc1cccnc1)NCC(O)c1ccccc1C(F)(F)F (stereo not given),-9.13
19,COc1cccc(N2CCN(C(=O)COc3c(C)occc3=O)CC2)c1,10
20,CN(C)c1ccc(NC(=O)NCC2CCOC2)cn1 (stereo not given),-9.11
21,Cc1nc(-c2cccc(C(=O)N(C)C)c2)cs1,1.56
22,c1cc(CNCc2ccnc(N3CCCC3)c2)c2c(c1)OCO2,-6.8
23,COc1ccc(CN(C(=O)C2CCCO2)c2ccncc2)cc1 (stereo not given),-8.37

row,SMILES,cytotoxicity at 70.5 h [%]
1,O=C(CCc1cccs1)N1CCCCC1Cn1cccn1 (stereo not given),-5.08
2,COc1ccc(OCC2CCCN(Cc3ccncc3)C2)cc1 (stereo not given),-12.6
3,Cc1cc(NC(=O)c2ccc(CN3CC[C@H](O)C3)cc2)ccc1F,-13.5
4,COc1ccc(OCc2nc(C(=O)NCCN3CCOCC3)co2)cc1,-5.59
5,CCc1ncc2c(n1)CN(c1cc(NC3CC3)nc(N)n1)C2,-8.23
6,Cc1nnc(-c2cccc(C#N)c2)n1C1CCCN(C(C)C)C1=O (stereo not given),-9.5
7,COc1ccsc1C(=O)NCCNc1ccccc1,-2.66
8,Cc1c(NCCO)cccc1OC1CCCC1,-2.5
9,O=C(CC(SC1CCCCC1)C(=O)O)c1ccc(Cl)cc1 (stereo not given),-4.64
10,CCSCCC(C)N(C)C(=O)c1cc(C)no1 (stereo not given),-2.61
11,Cc1occc(=O)c1OCC(=O)N1CCc2ccccc2C1,7.13
12,COc1ccc(CNC(=O)N2CCCC(Nc3ccccc3)C2)cn1 (stereo not given),-7.17
13,CC1(C)Cc2c(cnn2-c2ccccc2)C(NC2CCSCC2)C1 (stereo not given),-5.66
14,Cc1cccc(N2CC[C@H]3[C@H](CO[C@@H]3CN(C)Cc3ccco3)C2)n1,2.69
15,Cc1nn(C)c2nc(N(Cc3cnn(C)c3)C3CCCCC3)sc12,7.12
16,Cc1cc(C(=O)Nc2ccc(OC3CCOCC3)c(C)c2)[nH]n1,-17.3
17,Cc1nc(NCc2ccco2)nc2c1COCC21CCNC1 (stereo not given),-8.24
18,O=C1CCCN1CCC1CCN(C2CCC3(CCNCC3)CC2)CC1,-6.34
19,O=C(Cn1cccnc1=O)NC(Cc1ccsc1)c1ccccn1 (stereo not given),-11.2
20,O=C(c1nc(=O)[nH][nH]1)N1CCCN(CC2CCCCC2)CC1,-7.64
21,Cc1nc(N2CCC3(CCCN(C(C)C)C3=O)C2)c2sccc2n1 (stereo not given),-13.4
22,O=C(N[C@@H]1CCC[C@@H](N2CCCC2)[C@@H]1O)c1cnn2cccnc12,-1.75
23,Cc1n[nH]c(C)c1C1CCCN1C(=O)c1cc(Br)c[nH]1 (stereo not given),12.3

row,SMILES,cytotoxicity at 70.5 h [%]
1,CC(C)N1CCCn2c(nc(CNC(=O)c3nccn3C)cc2=O)C1,-17.1
2,CNc1cncc(C2CCCN2Cc2ccccn2)n1 (stereo not given),-6.51
3,Cc1nc2cc(OCc3nc(C(=O)NC(CO)CO)co3)ccc2s1,-8.5
4,COCCCNC(=O)NCc1nc(C)c(C)o1,-7.01
5,Cc1nc(CN(CCc2ccccc2)C2CCN(C)CC2)no1,-10.3
6,Cc1ccc(CN(CCCn2ccnc2)Cc2c[nH]cn2)s1,-0.992
7,O=C(CN1CCCC(c2ccn[nH]2)C1)Nc1nncs1 (stereo not given),1.3
8,Cc1ccc(CNC(=O)Cn2ncc3c2c(C)nn3C)cc1,-0.794
9,COc1ccc(CN2CCn3c(CO)nnc3C2)cc1CN1CCCC1,2.95
10,CCCNC(=O)c1cc2c(nc1O)CCC(C)C2 (stereo not given),22.8
11,COc1nc2ccn(CCc3cnccn3)c(=O)c2cc1C#N,40.2
12,Cc1cnn(CC(C)NCc2ccc(OCc3cccnc3)cc2)c1 (stereo not given),2.45
13,CN(C)C[C@H]1OC[C@@H]2CCN(S(=O)(=O)c3cccs3)C[C@@H]21,12.4
14,CCn1c(C)nnc1CN(C)C1CCN(Cc2ccccn2)C1 (stereo not given),-2.44
15,CN1[C@@H](c2ccccc2)[C@@H](C(=O)NCC2CCOCC2)C[C@@]1(C)C(=O)O,-11.8
16,CCc1nc(CCn2cc(-c3nccn3C)nn2)no1,-9.68
17,O=C(c1ccc(N2CCCCCC2)nn1)N1CCc2ccccc21,-3.2
18,CS(=O)(=O)N1CCc2[nH]nc(Cc3cccs3)c2C1,-2.7
19,CO[C@@H]1CCN(S(=O)(=O)c2cn(C)cn2)[C@H]1Cc1ccncc1,4.82
20,CCc1nc(N)nc(NCc2cnn3cccnc23)c1C,-0.745
21,COC1COC2(CCN(CC3CCOCC3)CC2)C1 (stereo not given),-11.1
22,Cc1nccn1Cc1cccc(CNC(=O)c2ccn(C)c(=O)c2)c1,13.1
23,COc1ccc(OC)c(Sc2ncccc2C(=O)NCCSC)c1,-8.11

row,SMILES,cytotoxicity at 70.5 h [%]
1,CS(=O)(=O)N1CCCC12CCCN(C(=O)c1ccc3[nH]ccc3c1)C2 (stereo not given),-10.6
2,O=C(N1CCOCC(O)C1)C1(c2ccc(Cl)cc2)CCC1 (stereo not given),21.7
3,O=C(NCCC(=O)N1CCCC1)c1ccc(SCc2cccnc2)cc1,-8.9
4,O=C(Cn1nc2ccccc2n1)N1CCCC(O)(CO)C1 (stereo not given),6.64
5,O[C@]12CCNC[C@H]1CN(c1ccnc3ccccc13)CC2,22.4
6,NC(=O)CN(Cc1ncc(-c2ccc(F)cc2)o1)C1CCCC1,-14.2
7,CCC(C(=O)NCC1=CCCN(C)C1)c1ccccc1 (stereo not given),-13.4
8,COc1nccc(N2CC[C@@H](N3CCCCCC3)[C@H](O)C2)c1C#N,-11.1
9,Cc1cc(CN(Cc2ccccc2)C2CC2)on1,-0.663
10,CCC[C@H]1CN(Cc2ccc3c(c2)OCCO3)C[C@@H]1NC(=O)COC,3.4
11,O=C1C(Nc2ncccn2)CCN1c1ccccc1OC(F)F (stereo not given),1.42
12,CC1CCCCN1S(=O)(=O)NCCN/C(O)=C1/N=CC=CC1=O (stereo not given),-5.82
13,CSCC(C)(O)CNC(=O)Nc1ccc(C)cc1Br (stereo not given),-3.05
14,CC(C)(C)OC(=O)NC(C)(C)c1noc(CN2CCCCC2)n1,-3.07
15,CN(CCCOc1ccccc1Cl)C(=O)CN1C[C@@H]2CC[C@H](CC1=O)N2,-2.68
16,O=C(NCC(O)COc1ccc(C(F)(F)F)cc1)Nc1nncs1 (stereo not given),-12.1
17,Cc1cc(N2CCC(c3ncc[nH]3)CC2)cc(C)n1,-3.01
18,Cc1ccc(CN(C(=O)NCC2CCS(=O)(=O)C2)C2CC2)o1 (stereo not given),-7.11
19,O=C(O)C1(Oc2ccc3c(c2)OCO3)CCN(C2CCOCC2)CC1,-14.1
20,Cc1csc(CCCNC(C)CC(=O)Nc2cccc(C)c2C)n1 (stereo not given),-4.67
21,COc1ccc(NC2(C(=O)N3CCn4cncc4C3)CCCC2)cc1,-11.8
22,Cc1ccc(C(=O)N2CCN(CCCSCC#N)CC2)o1,-3.91
23,CC1=C[C@@H](CN2CCCC2)[C@H](C(C)C)C[C@H]1Cc1nnc(C)o1,-4.38

row,SMILES,cytotoxicity at 70.5 h [%]
1,O=S(=O)(C1CC1)N1CCC2(CCCN(Cc3ccccn3)C2)C1 (stereo not given),-0.34
2,CC(NC(C)(C)CN)c1ccccc1 (stereo not given),-0.00601
3,Cc1c(Cl)cc(C(=O)N(CCO)Cc2nccn2C)cc1Cl,-0.75
4,O=S1(=O)[C@@H](c2ccccc2)[C@H](CO)CN1C1CC1,-1.65
5,COc1cc(OC)cc(-c2cc(CN)nc3ccnn23)c1,-4.26
6,Cc1[nH]nc2ncc(C(=O)N3CCN(CC(C)O)CC3)cc12 (stereo not given),-5.99
7,CNC(=O)NC(=O)C(C)N1CCN(c2ccc(C#N)cc2F)CC1 (stereo not given),-12.9
8,COc1ccc2nc(C3CC3)cc(C(=O)NCCc3nnc[nH]3)c2c1,-3.73
9,c1ccc(NCc2ccc(Cn3ccnc3)cc2)nc1,41.7
10,CN1CCCN(C(=O)c2cc3c(s2)CCN3C(=O)c2ccccc2)CC1,-1.37
11,CCC(CO)N(C/C(C)=C/c1ccco1)Cc1ccccn1 (stereo not given),-6
12,Cc1nc(NC(=O)OC(C)(C)C)sc1C(N)=O,-2.34
13,CN(C)C(=O)C1CN(Cc2c[nH]cn2)CCN(C2CCOCC2)C1 (stereo not given),-0.471
14,CCc1cc(C(=O)N[C@H]2CN(CCS(C)(=O)=O)C[C@@H]2C2CC2)[nH]n1,-13.2
15,Cc1cnc(CN(C)C2CCN(CCCc3cnn(C)c3)C2)o1 (stereo not given),-8
16,Cc1cnn(CC2CCCN2CC(=O)NC2CCN(C3CC3)CC2)c1 (stereo not given),-3.72
17,COCCNC(=O)NCCc1cccc(OC)c1O,0.934
18,COc1ccc(CNCCc2cc(F)cc3c2OCOC3)cc1OC,2.03
19,Cc1nc(C(C)C)ncc1C(=O)N1CCc2c(nc(N(C)C)[nH]c2=O)C1,-4.39
20,CC(C)NC1CC2(CCNCC2)c2cc(F)ccc21 (stereo not given),-2.34
21,CC(O)CN1CCC(CN(C)Cc2cccc(C(=O)N(C)C)c2)CC1 (stereo not given),12.1
22,N#Cc1cc(Cn2cnc(C3CCC3)cc2=O)ccc1F,-15.4
23,CC(NC(=O)CCc1cccc(OC2CCCC2)c1)c1nncn1C (stereo not given),2.36
